# Source: patent US12491178B2, “Stable pharmaceutical compositions of edaravone” (Slayback Pharma LLC, priority 2023, dated 2025)
# How the values were obtained:
# [1] = Solubility of edaravone in solubility enhancing agents; type: physicochemical
# Source text: The table below, illustrates the best possible solubilizing agents that are utilized in the present invention.
# [2] = cited from earlier work
smiles,measurement,setting,value
"CC1=NN(c2ccccc2)C(=O)C1 [edaravone, 3-methy-1-phenyl-2-pyrazolin-5-one]",Solubility,[1]; in Alcohol,52.27 mg/gm
same,Solubility,[1]; in CCMG 400 LQ (Mixture of caprylocaproyl polyoxylglycerides),14.36 mg/gm
same,Solubility,[1]; in Capryol 90 (Propylene Glycol Monocaprylate),15.8 mg/gm
same,Solubility,[1]; in Capryol 90 + Ethanol (50:50),65.0 mg/gm
same,Solubility,[1]; in Castor Oil,7.9 mg/gm
same,Solubility,[1]; in Castor oil + Ethanol (50:50),72.2 mg/gm
same,Solubility,[1]; in Cotton seed oil,2.1 mg/gm
same,Solubility,[1]; in Imwitor 988 (Ester of caprylic acid and glycerol),13.59 mg/gm
same,Solubility,[1]; in Kollisolv MCT 70,8.61 mg/gm
same,Solubility,[1]; in Labrafil M 1944 (Oleoyl polyoxyl-6 glycerides),6.9 mg/gm
same,Solubility,[1]; in Labrafil M 2125 (Linoleoyl Polyoxyl-6 glycerides),9.10 mg/gm
same,Solubility,"[1]; in Labrasol ALF (Caprylocaproyl Polyoxyl-8 glycerides), edaravone dissolved per gram of agent",25.1 mg/gm
same,Solubility,[1]; in Labrasol ALF + Ethanol (50:50),78.8 mg/gm
same,Solubility,[1]; in Lauroglycol 90 (Propylene glycol monolaurate),8.1 mg/gm
same,Solubility,[1]; in Miglyol 812 (Triester of caprylic and capric acid),11.26 mg/gm
same,Solubility,[1]; in PEG 300 (polyethylene glycol),26.4 mg/gm
same,Solubility,[1]; in PEG 300 + Ethanol (50:50),66.3 mg/gm
same,Solubility,[1]; in Peanut oil,1.7 mg/gm
same,Solubility,[1]; in Peppermint Oil,37.6 mg/gm
same,Solubility,[1]; in Peppermint Oil + Ethanol (50:50),72.8 mg/gm
same,Solubility,[1]; in Polysorbate 20,17.7 mg/gm
same,oral bioavailability (Fabs),[2],5.23%
